This is an account of results in patent US11891405B2, “Furo[3,4-b]pyrrole-containing BTK inhibitor” (CHIA TAI TIANQING PHARMACEUTICAL GROUP CO., LTD., priority 2018, dated 2024).

What is called bioavailability is dose-corrected exposure relative to a reference, in per cent. A word on the AUC(0-inf): it is the area under the concentration-time curve extrapolated to infinity. A higher AUC(0-inf) goes with high exposure. For orientation: AUC(0-t) means exposure summed from dosing to a finite time, without extrapolation to infinity. A lower AUC(0-t) goes with less exposure. For orientation: Cmax means the peak of the concentration-time curve. A word on the Tmax: it is the time from dosing to the highest level. In general, IC50 refers to the concentration that inhibits the measured activity by half. The low end stands for inhibition by little substance, the high end for a need for much substance.

Read-outs that look alike come from different tables or passages of the source.

Data set [1] is described as follows: In vivo pharmacokinetic assay on mouse. To be noted: ICR mice; for MRT last: read-out: MRT(0-t). As for the experimental part: EXPERIMENTAL EXAMPLE 4: IN VIVO PHARMACOKINETIC ASSAY ON MOUSE
ICR mice weighing 18-22 g were randomly grouped into 9 mice in each group after being fed for 3-5 days, and administered intragastrically with related compound at a dose of 10 mg/kg, and injected intravenously with the test compound at a dose of 1 mg/kg, respectively. The test animals (ICR mice) were fasted for 12 h before administration and fed for 4 h after administration, and water was freely drunk before and after the experiment and during the experiment. After intragastric administration, 0.1 mL of the blood at the orbit was collected at 0.25 h (15 min), 0.5 h (30 min), 1 h, 2 h, 4 h, 6 h, 8 h, 10 h and 24 h, and after intravenous injection, 0.1 mL of the blood at the orbit was collected at 0.083 h (5 min), 0.167 h (10 min), 0.5 h (30 min), 1 h, 2 h, 6 h, 8 h, 10 h and 24 h. Each mouse was sampled at 3-4 time points, and 3 mice were sampled at each time point. Whole blood was collected and placed in centrifuge tubes containing EDTA-K2 and sodium fluoride, then transferred to a 4° C. centrifuge within 30 min and centrifuged at 4000 rpm for 10 min to separate the plasma. All plasma was collected and immediately stored at −20° C. for testing. 20 μL of a plasma test sample and a standard curve sample were pipetted into 300 μL of acetonitrile solution containing an internal standard (diazepam […]), and the mixture was shaken and mixed for 5 min, and centrifuged at 13,000 rpm for 10 min. 80 μL of supernatant was diluted with 80 μL of ultrapure water, and the mixture was mixed well, form which 1 μL of the sample was pipetted and analyzed by LC/MS/MS, and a chromatogram was recorded. Oral and intravenous exposure of the compounds disclosed herein was evaluated by pharmacokinetic experiments in mice and the results are shown in Table 4.

The subject of data set [2] is OCI-LY10 cells. Description: In vivo pharmacodynamic study, OCI-LY10 xenograft. On the set-up: species or system NOD-SCID mice. Particulars: for TGI (%): tumor growth inhibition from tumor weight, 23 days; for TGI (%) / d0 TV Mean ± SD: 50 mg/kg bid i.g.; for d0 TV Mean ± SD: tumor volume at day 0 (grouping); for d21 TV Mean ± SD: tumor volume at day 21, 50 mg/kg bid i.g.; for d23 TV Mean ± SD: tumor volume at day 23, 50 mg/kg bid i.g. As for the experimental part: EXPERIMENTAL EXAMPLE 5: IN VIVO PHARMACODYNAMIC STUDY
OCI-LY10 cells were subcutaneously grafted (concentration: 1×10^8/mL×0.1 mL/mice) in NOD-SCID mice at the right side armpit (the inoculated site was shaved upon grafting) under aseptic conditions. After subcutaneous grafting, the animals were grouped when the tumor volume reached about 100-300 mm^3:
Model group: vehicle: 6 mice; I-1: 6 mice, 50 mg/kg, bid, i.g.; I-3: 6 mice, 50 mg/kg, bid, i.g.
The vehicle or compound was administered by intragastric administration at a volume of 10 mL/kg, twice daily, for 23 days. The tumor volume was measured 2-3 times per week, and the mice were weighed at the same time, with the data recorded. Animal behavior was observed daily. After all administration was completed, the animals were executed, stripped of tumors and weighed.
The tumor volume and the tumor growth inhibition were calculated using the following formulas: Tumor volume(TV)=(Length×Width^2)/2. Tumor growth inhibition(TGI)=(1−tumor weight in treatment group/tumor weight in model group)×100%.

For data set [3], the target named is BTK(WT) (Homo sapiens, UniProt Q06187). Kind of data set: Screening for BTK inhibitory activity. The class given is biochemical. As for the experimental part:
1.1 Screening for BTK Inhibitory Activity
350 ng/μL BTK stock solution was diluted with kinase buffer (50 mM HEPES, 10 mM MgCl2, 2 mM DTT, 1 mM EGTA, 0.01% Tween 20), and 6 μL of 1.67× working solution at 0.0334 ng/μL (final concentration: 0.02 ng/μL) was added to each well. Different compounds dissolved in DMSO were added to the wells using a nanoliter pipettor, resulting in the final concentration of 1000 nM to 0.244 nM (4-fold gradient for 7 concentrations in total), and blank control wells (without enzyme) and negative control wells (with enzyme, plus vehicle DMSO) were set, 2 replicate wells for each well. After enzyme was reacted with the compound or vehicle for 30 min, 5×ATP at 100 μM (final concentration: 20 μM) prepared with kinase buffer was mixed with 5×substrate at 0.5 μM (final concentration: 0.1 μM, ULight-poly GT) at a ratio of 1:1, and the mixture was added to each well at 4 μL/well. After being sealed with a film, the plate was incubated at room temperature for 2 h, then 5 μL of 4×EDTA at 40 mM (final concentration: 10 mM) was added to each well. After the plate was incubated for 5 min at room temperature, 5 μL of 4× detection reagent at 8 nM (final concentration: 2 nM, Ab) was added to each well, followed by incubation at room temperature for 1 h. The plate was read using a PE Envision multi-functional microplate reader ([…], emission: 665 nm), and IC50 was calculated by four-parameter fitting.

Sequence of BTK(WT) (Q06187 whole entry): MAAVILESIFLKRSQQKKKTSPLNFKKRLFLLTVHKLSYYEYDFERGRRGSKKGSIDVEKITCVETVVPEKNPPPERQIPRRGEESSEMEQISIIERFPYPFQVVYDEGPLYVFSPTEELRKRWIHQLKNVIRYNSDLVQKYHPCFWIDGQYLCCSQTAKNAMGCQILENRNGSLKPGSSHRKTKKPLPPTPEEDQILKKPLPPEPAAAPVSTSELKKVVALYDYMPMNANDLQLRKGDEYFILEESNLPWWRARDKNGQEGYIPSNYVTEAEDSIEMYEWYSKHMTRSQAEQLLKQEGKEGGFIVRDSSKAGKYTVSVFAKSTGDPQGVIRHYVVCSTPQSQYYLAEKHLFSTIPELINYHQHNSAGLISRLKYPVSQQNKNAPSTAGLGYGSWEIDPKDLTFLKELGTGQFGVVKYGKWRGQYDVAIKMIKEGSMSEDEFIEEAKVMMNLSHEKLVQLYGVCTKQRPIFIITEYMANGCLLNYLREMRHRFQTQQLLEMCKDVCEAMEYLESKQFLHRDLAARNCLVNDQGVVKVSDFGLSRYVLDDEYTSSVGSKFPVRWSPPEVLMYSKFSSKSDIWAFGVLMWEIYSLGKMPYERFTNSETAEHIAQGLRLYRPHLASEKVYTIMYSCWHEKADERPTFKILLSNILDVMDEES

For `CC#CC(=O)N1[C@@H]2COC[C@@H]2C[C@H]1c1nc(-c2ccc(C(=O)Nc3ccccn3)cc2)c2c(N)nccn12` [Compound I-1, 4-(8-amino-3-((2S,3aR,6aS)-1-(but-2-ynoyl)hexahydro-1H-furo[3,4-b]pyrrol-2-yl)imidazo [1,5-a]pyrazin-1-yl)-N-(pyridin-2-yl)benzamide], the t1/2z in data set [1] (ig 10 mg/kg) worked out at 142 min. Moreover, in data set [1] (iv 1 mg/kg), the CLz turned out to be 340 mL/min/kg and the t1/2z turned out to be 43.8 min. In addition, the bioavailability in data set [1] (mouse, plasma, oral, ig 10 mg/kg vs iv 1 mg/kg, read-out: Absolute bioavailability F %) is 72.4%. In data set [1] (mouse, plasma, po, ig 10 mg/kg), the AUC(0-inf) was determined as 315 ng·h/mL, the AUC(0-t) came out at 315 ng·h/mL, the Cmax was 92.7 ng/mL and the Tmax was determined as 15 min. Besides, in data set [1] (mouse, plasma, po, ig 10 mg/kg), the MRT last was 184 min. Further, in data set [1] (mouse, plasma, iv 1 mg/kg), the AUC(0-inf) was determined as 43.6 ng·h/mL, the AUC(0-t) amounted to 43.6 ng·h/mL and the MRT last came out at 31.2 min. For the same compound, the Vd in data set [1] (mouse, plasma, iv 1 mg/kg, read-out: Vz) is 21.5 L/kg. In addition, in data set [2], the “TGI (%)” value amounted to 79.4%, the “d0 TV Mean ± SD” value was 176 ± 35 mm^3, the “d21 TV Mean ± SD” value turned out to be 742 ± 109 mm^3 and the “d23 TV Mean ± SD” value amounted to 847 ± 189 mm^3. In addition, in data set [3], inhibition was half-maximal at 52.1 nM (IC50).
In the case of `C=CC(=O)N1[C@@H]2COC[C@@H]2C[C@H]1c1nc(-c2ccc(C(=O)Nc3ccccn3)cc2)c2c(N)nccn12` [Compound I-3, 4-(3-((2S,3AR,6AS)-1-ACRYLOYLHEXAHYDRO-1H-FURO[3,4-B]PYRROL-2-YL)-8-AMINOIMIDAZO [1,5-A]PYRAZIN-1-YL)-N-(PYRIDIN-2-YL)BENZAMIDE], in data set [2], the “TGI (%)” value was determined as 84.1%, the “d0 TV Mean ± SD” value was determined as 177 ± 16 mm^3, the “d21 TV Mean ± SD” value is reported as 645 ± 202 mm^3 and the “d23 TV Mean ± SD” value was found to be 647 ± 343 mm^3. The compound also came in with an IC50 in data set [3] of 21.4 nM.
`CC#CC(=O)N1[C@@H]2COC[C@@H]2C[C@H]1c1nc(-c2ccc(C(=O)Nc3cc(C(F)(F)F)ccn3)cc2F)c2c(N)nccn12` [Compound I-4, 4-(8-AMINO-3-((2S,3AR,6AS)-1-(BUT-2-YNOYL)HEXAHYDRO-1H-FURO[3,4-B]PYRROL-2-YL)IMIDAZO[1,5-A]PYRAZIN-1-YL)-3-FLUORO-N-(4-(TRIFLUOROMETHYL)PYRIDIN-2-YL)BENZAMIDE]: in data set [3], the IC50 stood at 12.4 nM.
Same read-out and setting: under `Nc1nccn2c([C@@H]3C[C@H]4COC[C@H]4N3C(=O)C3CC3)nc(-c3ccc(C(=O)Nc4cc(C(F)(F)F)ccn4)cc3F)c12` [Compound I-7, 4-(8-AMINO-3-((2S,3AR,6AS)-1-(CYCLOPROPANECARBONYL)HEXAHYDRO-1H-FURO[3,4-B]PYRROL-2-YL)IMIDAZO[1,5-A]PYRAZIN-1-YL)-3-FLUORO-N-(4-(TRIFLUOROMETHYL)PYRIDIN-2-YL)BENZAMIDE] stands 9.7 nM.
